Our source for the cytotoxicity values is ChEMBL document CHEMBL3507680, “University of Dundee, Gates Library screen for HepG2 cell viability”.

This data set can be described thus: Human HepG2 cell viability assay in 384 well format. The format is toxicity, cell-based. Also noted: dose 125 nL, time 70.5 hour; cytotoxicity at 70.5 h: concentration not given beside the values. The following applies: HepG2 cells, read-out: Inhibition.
On to `CC(=O)N1CCN(C(=O)CNc2cccc(OC(F)F)c2C)CC1`, for which the cytotoxicity at 70.5 h is -1.78%. As for `CCOC(=O)N1CCC(OC)c2ccccc2N(CC(=O)NC)C(=O)C1` (stereo not given), the cytotoxicity at 70.5 h was -3.27%.

`c1ncn(CC2CCCN(Cc3nc(C4CC4)no3)C2)n1` (stereo not given): the cytotoxicity at 70.5 h was 31.5%.

As for `CCc1cc2cc(OC)c(OC)cc2nc1SCCN1CCCCC1`, the cytotoxicity at 70.5 h amounted to 1.15%. Consider `c1ccc(CN2CCC3(CC2)CC(Oc2cccnc2)C3)nc1`, for which the cytotoxicity at 70.5 h was -12.3%. To `CC(NC(=O)Cn1ccnc1)c1ccc(OCC2CC2)c(F)c1` (stereo not given) belongs 0.552%; to `CCN(CC)CCCNc1nccc(-c2cn(C)nc2C)n1`, -3.41%.

Consider `O=C1[C@H]2CN(CC3CC3)C[C@H]2CN1Cc1cccc(F)c1`, for which the cytotoxicity at 70.5 h was -7.25%. To `FC(F)(F)COCCN1CCN(c2ccc3nncn3n2)CC1` belongs 1.24%; to `CCNC(=O)[C@@H]1CCCN1[C@@H](C(=O)NC)C1CC1`, -2.16%; to `CC(C)SCC(=O)N1CCc2c(nc(N(C)C)nc2N(C)C)C1`, -9.5%. To `Cc1nc(CN(C)C2CCN(Cc3ccc4c(c3)CCC4)C2)no1` (stereo not given) belongs -9.34%; to `COc1ccc(-c2nnsc2C(=O)N2CCSCC2)cc1`, -8.21%; to `CC(C)N(C(=O)c1ccccc1-c1nc2c([nH]1)CCNC2)C(C)C`, 5.55%.

Turning to `Cc1ccc(C(=O)N2CCn3c(COCC4CC4)cnc3C2C)nc1` (stereo not given), the cytotoxicity at 70.5 h was -8.57%. To `CC(=O)c1ccc(CNC(=O)c2cc(C)nn2C)nc1C` belongs 3.42%; to `CC(C)CN1C(=O)C2(CCCC2)NC1c1cn(C)c(=O)n(C)c1=O` (stereo not given), 0.777%; to `Cc1cc(N2CCC3(CCCN(C4CCOCC4)C3=O)C2)ccn1` (stereo not given), -4.29%. On to `COC(=O)CNC(=O)C12CCC(=O)N1c1cc(Cl)ccc1S2` (stereo not given), for which the cytotoxicity at 70.5 h is -1.84%.

For `CC(=O)N1CCCC1c1cncc(Oc2ccc(F)cc2)n1` (stereo not given), the cytotoxicity at 70.5 h was -3.89%.

With `Cc1cc(NC(=O)CN2CCN(c3nc(C)cs3)C(C)C2)on1` (stereo not given), the cytotoxicity at 70.5 h was -1.59%. To `Cn1cc(CCC(=O)N2C[C@H]3CC[C@@H]2CN(Cc2ccccc2)C3)cn1` belongs -5.6%; to `COc1ccc(C2CC(=O)Nc3c2nc2n3CCCC2)cc1OC` (stereo not given), 8.63%. Consider `CCS(=O)(=O)N1CCOC2(COCCN(c3nccs3)C2)C1` (stereo not given), for which the cytotoxicity at 70.5 h was -8.91%. To `Cc1cccc(COC[C@]23COC[C@H]2CN(C(=O)c2ccsc2)C3)n1` belongs 2.91%. For `Cc1cc(C)n(CC2CCCCN2CC(=O)Nc2cccnc2)n1` (stereo not given), the cytotoxicity at 70.5 h is 17.8%. To `NS(=O)(=O)CCNC(=O)c1cc2cccc(F)c2o1` belongs 18%; to `Cc1ccc(N(C)S(=O)(=O)c2cc(C(=O)O)cs2)cc1`, 4.32%; to `Cc1cccc(CN2Cc3ccnn3CC(COCC3CC3)C2)n1` (stereo not given), 8.5%.

Take `Cc1c(C(=O)N2CCC(N3CCCCC3)CC2)n(C)c2ccc(Cl)cc12`: the cytotoxicity at 70.5 h is -0.949%. To `C[S+]([O-])c1nncn1CC(=O)c1ccc2c(c1)CCO2` (stereo not given) belongs -2.98%; to `Cc1ccccc1SC1CCN(C(=O)CCCS(N)(=O)=O)CC1`, -5.95%; to `CC(C)C(=O)NCCCn1ncc2c(Cl)cccc21`, -0.542%. In the case of `CCn1cnnc1CNC(=O)N1CCN(Cc2ccsc2)CC1`, the cytotoxicity at 70.5 h was found to be 2.69%. As to `COCC(=O)N1CCN(S(=O)(=O)c2cccs2)[C@H]2CS(=O)(=O)C[C@H]21`, the cytotoxicity at 70.5 h is -7.15%. As for `CC(C)c1nc(/C=C/c2ccc(O)c(Cl)c2)ncc1C(=O)O`, the cytotoxicity at 70.5 h is -4.86%. As for `COc1ccc(CNC(C)c2cnn(C)c2)cc1OC1CCCC1` (stereo not given), the cytotoxicity at 70.5 h is -3.45%. With `COc1cc(NCCNC(=O)c2cc[nH]c2C)cc(OC)c1`, the cytotoxicity at 70.5 h worked out at 3.9%. For the compound `O=C(c1ccccc1)N1CCCC(Nc2ccc(F)cc2)C1` (stereo not given), the cytotoxicity at 70.5 h was -1.68%. To `CCC1(CC)CC(=O)N(CC(O)c2cc(F)ccc2F)C1=O` (stereo not given) belongs -4.77%; to `Cc1nc(CCCNC(=O)Nc2cc(F)cc(F)c2)n[nH]1`, -11.9%; to `CCCc1noc(-c2ccc(-n3ncc(C(=O)O)c3C)nc2)n1`, 23.5%.

Turning to `Cc1nnc(CN2CCN(C(C)c3nc(C4CC4)no3)CC2)o1` (stereo not given), the cytotoxicity at 70.5 h is -1.41%. As for `Cc1cc(CN2CCN(C(=O)C(C(C)C)n3cncn3)CC2)on1` (stereo not given), the cytotoxicity at 70.5 h was -10.4%.

Take `CCN(C)S(=O)(=O)N1CCCC(c2nc(-c3ccccc3)c[nH]2)C1` (stereo not given): the cytotoxicity at 70.5 h is 14.3%.

For `Cc1ccc(CNC2(Cc3cc(-c4ccccn4)on3)COC2)o1`, the cytotoxicity at 70.5 h was -1.75%. To `Cn1cc(CNCC2Cn3nnc(-c4ccccc4)c3CO2)cn1` (stereo not given) belongs -16.3%; to `O=C(NCc1cnc2n1CCN(CC1CCOCC1)C2)c1ccno1`, 31.3%; to `O=C(c1cccc(F)c1)N1CCC2(CC1)CN(c1ccccn1)CCO2`, -8.22%.

Turning to `O=C(c1cnc2ccc(F)cc2c1NCc1ccco1)N1CCCCC1`, the cytotoxicity at 70.5 h was -9.21%. Turning to `CN(C)C(=O)NC1COC2(CCN(C(=O)c3ccc(Cl)cc3)CC2)C1` (stereo not given), the cytotoxicity at 70.5 h was -8.31%. To `CCS(=O)(=O)c1ncc(CN2CCN(C)CC2)n1CCc1ccccc1` belongs -3.88%; to `OCCOCc1nnn2c1CN(c1ncccn1)CCC2`, 8.18%. To `O=C1CC2(CCCC2)CC(=O)N1Cc1nc2ncccn2n1` belongs 1.37%; to `CCc1nnc2n1CCN(Cc1ncc(-c3ccc(Cl)cc3)o1)C2`, -7.58%; to `CNc1cc(C)nc(C2CN(Cc3cncs3)CCO2)c1` (stereo not given), -11.5%. In the case of `Cc1ccc(Cn2c(=O)[nH]c3csnc3c2=O)cc1`, the cytotoxicity at 70.5 h was -13.9%. To `O=C(c1ccc[nH]1)N1CCOCC2(CCN(C3CCOCC3)C2)C1` (stereo not given) belongs -19%; to `O=C(C(O)c1ccccc1Cl)N1CCCN(Cc2cccnc2)CC1` (stereo not given), -4.87%; to `CN1CCOCC12CCN(Cc1nccs1)CC2`, 3.99%. As for `Cc1nn(C)c(C)c1C1CCCN1CC(=O)NCc1ccccn1` (stereo not given), the cytotoxicity at 70.5 h is -5.71%. With `CC(=O)N[C@@H]1CN(Cc2nc3ccccc3[nH]2)C[C@H]1c1ccc(C)o1`, the cytotoxicity at 70.5 h is -8.75%.

Turning to `CC(C)(CNC(=O)Nc1cccc(-c2nccs2)c1)C(N)=O`, the cytotoxicity at 70.5 h is -0.236%. To `Cc1ccc(F)cc1NC(=O)CNc1cccc2c1CCCC2` belongs -7.64%; to `CN1CC(=O)N(c2cccc(F)c2)CC12CCN(Cc1nccs1)C2` (stereo not given), -1.43%; to `CC(=O)N1CCC(NC2(Cc3cc(CN(C)C)on3)COC2)CC1`, 11.9%. Consider `CCn1cc2c(n1)CN(S(=O)(=O)c1cn(C)cn1)CC2COC` (stereo not given), for which the cytotoxicity at 70.5 h is -3.24%. To `CC1CCN(CC(=O)N(C)CCc2noc(C3CC3)n2)C1=O` (stereo not given) belongs -5.01%.

In the case of `CNC(=O)C1(N2CCC[C@H]2C(=O)NC2CCCCC2)CCOCC1`, the cytotoxicity at 70.5 h was 5.4%. For the compound `Cc1ccc(CN2CC[C@@H](N(C)C(C)C)[C@@H]2Cc2ccccc2)o1`, the cytotoxicity at 70.5 h is 2.54%.

Regarding `Cn1ncnc1NCc1ccc(Cl)cc1`, the cytotoxicity at 70.5 h is -9.65%. To `CC(C)CC(=O)N1CC(=O)N(Cc2ccco2)CC(O)C1` (stereo not given) belongs 8.54%; to `CN1Cc2ccccc2CC2(CCN(C(=O)N3CCOCC3)CC2)C1=O`, 24.7%.

For the compound `Cc1nnsc1C(=O)N1CCCCC1c1cc2nc(C)c(C)c(O)n2n1` (stereo not given), the cytotoxicity at 70.5 h is -2.13%. Regarding `c1nc2c(c(NCCCn3cncn3)n1)CCN(CC1CCOC1)CC2` (stereo not given), the cytotoxicity at 70.5 h is -2.03%. As to `CCOc1ccc(C(=O)NC2CC2)cc1C`, the cytotoxicity at 70.5 h was -7.46%. To `Cc1nc(CN2CCC23CCN(C(=O)c2ccco2)CC3)cs1` belongs -1.36%; to `COC(=O)c1ncccc1N1CCCCC1`, -6.28%. `O=S(=O)(c1ccccc1)N1CCC2(CCCN2CC2CCCC2)C1` (stereo not given): the cytotoxicity at 70.5 h is -5.67%. As to `COc1ccc(F)cc1C[S+]([O-])CC(=O)NCc1ccccc1C` (stereo not given), the cytotoxicity at 70.5 h stood at 11%.

In the case of `Cc1cscc1C(=O)Nc1cc(CSCCO)ccn1`, the cytotoxicity at 70.5 h was -3.95%. To `CCN(Cc1noc(C2CC2)n1)Cc1ccc(C#N)cc1F` belongs 1.6%. To `O=C(CCn1c(C(F)F)cc2cccnc21)NC1CCCC1` belongs -6.41%; to `O=C(NCc1nncn1-c1ccccc1)C1CC1`, -1.31%; to `CC(C)N1CCC(CC(=O)N2CCCCC2CCn2cccn2)CC1` (stereo not given), -10.4%. For the compound `Cc1nnc(CN2CCCC2c2cccc(Br)c2)o1` (stereo not given), the cytotoxicity at 70.5 h is -4.5%. On to `CCC(C)(COc1ncccc1Cl)NCC(=O)NCC(C)C` (stereo not given), for which the cytotoxicity at 70.5 h is -30.2%.

`c1ccc(-n2nnnc2CN2CCCC(Cn3cncn3)C2)cc1` (stereo not given): the cytotoxicity at 70.5 h was -0.367%. To `O=c1cc(Cn2cncn2)nc2n1CCCN(Cc1ccoc1)C2` belongs -0.379%; to `CC(C)c1nccn1C(C)C(=O)NCc1noc(Cc2cccs2)n1` (stereo not given), 21.9%.

As to `Cc1nc(CNC(=O)NCc2ccc(OCC3CC3)nc2)cs1`, the cytotoxicity at 70.5 h is -5.23%. For the compound `O=C(c1ccno1)N1CC2(CCC(C(=O)N3CCCC3)O2)C1` (stereo not given), the cytotoxicity at 70.5 h was -14.7%.

Consider `Cc1cc(-c2cnc(C)nc2CN(C)C(=O)c2ccccn2)on1`, for which the cytotoxicity at 70.5 h is -3.87%.

`Cc1cc(N2CCC(NC(=O)CCC3CCCO3)CC2)nc(C)n1` (stereo not given): the cytotoxicity at 70.5 h was -5.62%. To `CNC(=O)[C@@H]1CCO[C@@H]2CCN(Cc3ccsc3)C[C@H]21` belongs -14%. To `CCc1nc(CC(=O)NCC2(C(N)=O)CCOCC2)cs1` belongs -6.76%; to `CNC(=O)CCCNCc1c(C)nn(CC(C)C)c1N(C)C`, 0.675%.

Take `O=C(CCC1CCN(C2CCSCC2)CC1)NCC1CCCO1` (stereo not given): the cytotoxicity at 70.5 h was -12%.

For `Cc1ccc(S(=O)(=O)c2ncccc2CN2CCCCC2)cc1`, the cytotoxicity at 70.5 h was -21%.

`N#Cc1ccnc(NCc2cc3n(n2)CCCN(C(=O)C2CCC2)C3)c1`: the cytotoxicity at 70.5 h worked out at 1.71%.
